Measurements published in publication PMC10041525, “New Dual Inhibitors of Bacterial Topoisomerases with Broad-Spectrum Antibacterial Activity and In Vivo Efficacy against Vancomycin-Intermediate Staphylococcus aureus” (Journal of Medicinal Chemistry, 2023).
Like-named read-outs stand apart in the source and are kept apart here.

Tests used:
[1] = system: 100 A. baumannii strains (50 MDR, 50 non-MDR); experiment: MIC broth microdilution at IHMA Europe, panel of 100 strains; format: cell-based; conditions: for MIC / MIC50 / MIC90: Acinetobacter baumannii
E. faecium (n = 13) = experiment: MIC broth microdilution at IHMA Europe; format: cell-based; conditions: Enterococcus faecium, read-out: MIC
P. aeruginosa ATCC 27853 = experiment: IHMA QC MIC; format: cell-based
E. coli ATCC 25922 = experiment: IHMA QC MIC; format: cell-based
E. faecalis ATCC 29212 = experiment: IHMA QC MIC; format: cell-based
Text: (§1) Supplement jm2c01905_si_004.xlsx, sheet "QC" | column: MIC [µg/mL]

H. influenzae ATCC 49247 = experiment: IHMA QC MIC; format: cell-based; conditions: Haemophilus influenzae
Text: as §1

H. influenzae ATCC 49766 = experiment: IHMA QC MIC; format: cell-based
Text: as §1

S. pneumoniae ATCC 49619 [2] = experiment: IHMA QC MIC; format: cell-based
Text: as §1

S. pneumoniae ATCC 49619 [3] = system: S. pneumoniae ATCC 49619; set-up: method as in earlier work; conditions: QC range for S. pneumoniae ATCC 49619, ref CLSI; cited from earlier work

For `C[C@H]1COc2c(N3CCN(C)CC3)c(F)cc3c(=O)c(C(=O)O)cn1c23.C[C@H]1COc2c(N3CCN(C)CC3)c(F)cc3c(=O)c(C(=O)O)cn1c23.O` [Levofloxacin, levofloxacin], the MIC ([1]; A. baumannii IHMA 2195460, Italy 2020, MDR) was 16 µg/mL, the MIC ([1]; A. baumannii IHMA 2196914, South Africa 2020, MDR) was 16 µg/mL and the MIC ([1]; A. baumannii IHMA 2196959, South Africa 2020, MDR) was 4 µg/mL. The MIC ([1]; A. baumannii IHMA 2203763, Spain 2020, MDR) was over 16 µg/mL, the MIC ([1]; A. baumannii IHMA 2205144, Korea, South 2020, MDR) was 16 µg/mL and the MIC ([1]; A. baumannii IHMA 2206459, Taiwan 2020, MDR) was 16 µg/mL. For the same compound, the MIC ([1]; A. baumannii IHMA 2206507, Taiwan 2020, Non-MDR) was at most 0.25 µg/mL, the MIC ([1]; A. baumannii IHMA 2212575, Hungary 2020, Non-MDR) was at most 0.25 µg/mL and the MIC ([1]; A. baumannii IHMA 2215307, Hong Kong 2020, Non-MDR) was at most 0.25 µg/mL. The MIC ([1]; A. baumannii IHMA 2216586, Taiwan 2020, MDR) was 8 µg/mL, the MIC ([1]; A. baumannii IHMA 2223200, Colombia 2020, Non-MDR) was at most 0.25 µg/mL and the MIC ([1]; A. baumannii IHMA 2224017, Panama 2020, MDR) was 8 µg/mL. The MIC ([1]; A. baumannii IHMA 2224303, Panama 2020, Non-MDR) was at most 0.25 µg/mL, the MIC ([1]; A. baumannii IHMA 2231797, Greece 2020, MDR) was 8 µg/mL and the MIC ([1]; A. baumannii IHMA 2233099, Guatemala 2020, MDR) was 8 µg/mL. For the same compound, the MIC ([1]; A. baumannii IHMA 2233430, Kazakhstan 2020, MDR) was over 16 µg/mL, the MIC ([1]; A. baumannii IHMA 2233548, Kazakhstan 2020, Non-MDR) was at most 0.25 µg/mL and the MIC ([1]; A. baumannii IHMA 2238964, Thailand 2020, MDR) was 4 µg/mL. It also gave an MIC ([1]; A. baumannii IHMA 2239052, Thailand 2020, Non-MDR) of at most 0.25 µg/mL, an MIC ([1]; A. baumannii IHMA 2261047, Belgium 2020, MDR) of 8 µg/mL and an MIC ([1]; A. baumannii IHMA 2261633, Canada 2020, Non-MDR) of at most 0.25 µg/mL. The MIC ([1]; A. baumannii IHMA 2274234, South Africa 2020, MDR) was 8 µg/mL, the MIC ([1]; A. baumannii IHMA 2274364, South Africa 2020, MDR) was 16 µg/mL and the MIC ([1]; A. baumannii IHMA 2275237, Chile 2020, Non-MDR) was at most 0.25 µg/mL. It also gave an MIC ([1]; A. baumannii IHMA 2275751, Jordan 2020, MDR) of 8 µg/mL, an MIC ([1]; A. baumannii IHMA 2316205, United States 2020, MDR) of 16 µg/mL and an MIC50 ([1]; MDR n = 50) of 8 µg/mL. For the same compound, the MIC90 ([1]; MDR n = 50) was 16 µg/mL, the MIC50 ([1]; all isolates n = 100) was 0.5 µg/mL and the MIC90 ([1]; all isolates n = 100) was 16 µg/mL. The MIC50 ([1]; non-MDR n = 50) was at most 0.25 µg/mL, the MIC90 ([1]; non-MDR n = 50) was at most 0.25 µg/mL and the MIC ([1]; read-out: MAX (maximum MIC), non-MDR n = 50) was 0.5 µg/mL. The MIC ([1]; read-out: MAX (maximum MIC; all strains inhibited), MDR n = 50) was over 16 µg/mL, the MIC ([1]; read-out: MAX (maximum MIC; all strains inhibited), all isolates n = 100) was over 16 µg/mL and the MIC ([1]; read-out: MIN (minimum MIC), MDR n = 50) was 4 µg/mL. The MIC ([1]; read-out: MIN (minimum MIC), all isolates n = 100) was at most 0.25 µg/mL, the MIC ([1]; read-out: MIN (minimum MIC), non-MDR n = 50) was at most 0.25 µg/mL and the “Percentage I” value ([1]; MDR n = 50) was 12%. For the same compound, the “Percentage R” value ([1]; MDR n = 50) was 88%, the “Percentage S” value ([1]; MDR n = 50) was 0% and the “Percentage I” value ([1]; all n = 100, CLSI breakpoints) was 6%. The “Percentage R” value ([1]; all n = 100, CLSI breakpoints) was 44%, the “Percentage S” value ([1]; all n = 100, CLSI breakpoints) was 50% and the “Percentage I” value ([1]; non-MDR n = 50) was 0%. For the same compound, the “Percentage R” value ([1]; non-MDR n = 50) was 0%, the “Percentage S” value ([1]; non-MDR n = 50) was 100% and the MIC (E. faecium (n = 13); E. faecium IHMA N° 1764866) was over 32 µg/mL. It also gave an MIC (E. faecium (n = 13); E. faecium IHMA N° 1765436) of over 32 µg/mL, an MIC (E. faecium (n = 13); E. faecium IHMA N° 1765746) of over 32 µg/mL and an MIC (E. faecium (n = 13); E. faecium IHMA N° 1893573) of over 32 µg/mL. It also gave an MIC (E. faecium (n = 13); E. faecium IHMA N° 1893846) of over 32 µg/mL, an MIC (E. faecium (n = 13); E. faecium IHMA N° 1893942) of over 32 µg/mL and an MIC (E. faecium (n = 13); E. faecium IHMA N° 1894055) of over 32 µg/mL. For the same compound, the MIC (E. faecium (n = 13); E. faecium IHMA N° 1897027) was over 32 µg/mL, the MIC (E. faecium (n = 13); E. faecium IHMA N° 1897101) was over 32 µg/mL and the MIC (E. faecium (n = 13); E. faecium IHMA N° 1904592) was 32 µg/mL. It also gave an MIC (E. faecium (n = 13); E. faecium IHMA N° 2075051) of over 32 µg/mL, an MIC (E. faecium (n = 13); E. faecium IHMA N° 2077718) of over 32 µg/mL and an MIC (E. faecium (n = 13); E. faecium IHMA N° 2083787) of 32 µg/mL. It also gave an MIC (P. aeruginosa ATCC 27853; Pseudomonas aeruginosa, ATCC27853, QC strain P. aeruginosa ATCC 27853, test date 2021-11-11) of 2 µg/mL, an MIC (P. aeruginosa ATCC 27853; Pseudomonas aeruginosa, ATCC27853, QC strain P. aeruginosa ATCC 27853, test date 2021-11-26) of 1 µg/mL and an MIC (P. aeruginosa ATCC 27853; QC strain P. aeruginosa ATCC 27853, test date 2021-11-11) of 1 µg/mL. For the same compound, the MIC (E. coli ATCC 25922; Escherichia coli, ATCC25922) was 0.015 µg/mL, the MIC (E. coli ATCC 25922; Escherichia coli, ATCC25922, read-out: MIC (QC, repeated tests)) was at most 0.25 µg/mL and the MIC (E. coli ATCC 25922; QC strain E. coli ATCC 25922, test date 2021-11-26) was 0.015 µg/mL. For the same compound, the MIC (E. faecalis ATCC 29212; Enterococcus faecalis, ATCC29212) was 1 µg/mL, the MIC (E. faecalis ATCC 29212; QC strain E. faecalis ATCC 29212, test date 2021-11-26) was 1 µg/mL and the MIC (H. influenzae ATCC 49247; ATCC49247, QC strain H. influenzae ATCC 49247, test date 2021-11-11) was 0.015 µg/mL. It also gave an MIC (H. influenzae ATCC 49247; ATCC49247, QC strain H. influenzae ATCC 49247, test date 2021-11-26) of 0.015 µg/mL, an MIC (H. influenzae ATCC 49766; Haemophilus influenzae, ATCC49766) of 0.015 µg/mL and an MIC (H. influenzae ATCC 49766; QC strain H. influenzae ATCC 49766, test date 2021-11-26) of 0.015 µg/mL. For the same compound, the MIC (S. pneumoniae ATCC 49619 [2]; QC strain S. pneumoniae ATCC 49619, test date 2021-11-26) was 0.5 µg/mL, the MIC (S. pneumoniae ATCC 49619 [2]; Streptococcus pneumoniae, ATCC49619) was 0.5 µg/mL and the “MIC, CLSI Range” value (S. pneumoniae ATCC 49619 [3]) was 0,5 - 2 µg/mL.
